Patent US7625895B2, “Diphenyl-dihydro-imidazopyridinones” (Hoffmann-Le Roche Inc., priority 2007, dated 2009)

Molecular target: interaction between p53 and MDM2 proteins (recombinant GST-tagged MDM2 / p53-peptide) (Homo sapiens, UniProt Q00987)
Assay: HTRF assay of inhibition of the p53-MDM2 interaction (GST-MDM2 binding to biotinylated p53 peptide)
Conditions: 90 nM biotinylated p53 peptide, 160 ng/ml GST-MDM2, 37° C. 1 h
Experimental: The ability of the compounds to inhibit the interaction between p53 and MDM2 proteins was measured by an HTRF (homogeneous time-resolved fluorescence) assay in which recombinant GST-tagged MDM2 binds to a peptide that resembles the MDM2-interacting region of p53 (Lane et al.). Binding of GST-MDM2 protein and p53-peptide (biotinylated on its N-terminal end) is registered by the FRET (fluorescence resonance energy transfer) between Europium (Eu)-labeled anti-GST antibody and streptavidin-conjugated Allophycocyanin (APC).
Test is performed in black flat-bottom 384-well plates (Costar) in a total volume of […] containing: 90 nM biotinylated peptide, 160 ng/ml GST-MDM2, 20 nM streptavidin-APC (PerkinElmerWallac), 2 nM Eu-labeled anti-GST-antibody (PerkinElmerWallac) 0.2% bovine serum albumin (BSA), 1 mM dithiothreitol (DTT) and 20 mM […] (TBS) buffer as follows: Add 10 μL of GST-MDM2 (640 ng/ml working solution) in reaction buffer to each well. Add 10 μL diluted compounds (1:5 dilution in reaction buffer) to each well mix by shaking. Add 20 μL biotinylated p53 peptide (180 nM working solution) in reaction buffer to each well and mix on shaker. Incubate at 37° C. for 1 h. Add 20 μL streptavidin-APC and Eu-anti-GST antibody mixture (6 nM Eu-anti-GST and 60 nM streptavidin-APC working solution) in TBS buffer with 0.2% BSA, shake at room temperature for 30 minutes and read using a TRF-capable plate reader at 665 and 615 nm (Victor 5, Perkin ElmerWallac). If not specified, the reagents were purchased from Sigma Chemical Co.

interaction between p53 and MDM2 proteins (recombinant GST-tagged MDM2 / p53-peptide), sequence (Q00987 whole entry): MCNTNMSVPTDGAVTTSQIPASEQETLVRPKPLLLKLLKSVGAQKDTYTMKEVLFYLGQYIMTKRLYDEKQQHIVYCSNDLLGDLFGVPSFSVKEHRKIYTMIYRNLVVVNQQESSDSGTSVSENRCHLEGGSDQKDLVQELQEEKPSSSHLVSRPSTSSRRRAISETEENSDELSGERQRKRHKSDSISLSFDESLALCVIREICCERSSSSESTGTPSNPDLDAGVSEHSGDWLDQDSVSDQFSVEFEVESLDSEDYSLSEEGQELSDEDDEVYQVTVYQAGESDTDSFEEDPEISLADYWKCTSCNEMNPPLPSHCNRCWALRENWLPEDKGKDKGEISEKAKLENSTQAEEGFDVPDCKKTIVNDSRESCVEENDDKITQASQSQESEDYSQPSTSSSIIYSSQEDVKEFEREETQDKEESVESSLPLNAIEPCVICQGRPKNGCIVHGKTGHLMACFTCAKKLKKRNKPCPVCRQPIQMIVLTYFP

| IC50 [µM] | SMILES |
| --- | --- |
| 0.69 | N#Cc1cccc(S(=O)(=O)N2c3ccc(C(=O)N4CCOCC4)c(=O)n3[C@H](c3ccc(Cl)cc3)[C@@H]2c2ccc(Cl)cc2)c1 (single isomer, unassigned) [Example 92, 3-[2R*,3S*-bis-(4-chloro-phenyl)-6-morpholine-4-carbonyl)-5-oxo-2,3-dihydro-5H-imidazo[1,2-a]pyridine-1-sulfonyl]-benzonitrile] |
| 0.46 | COC(=O)c1cccc(S(=O)(=O)N2c3ccc(C(=O)N4CCN(C)CC4)c(=O)n3[C@@H](c3ccc(Cl)cc3)[C@H]2c2ccc(Cl)cc2)c1 (racemic) [Example 63, rac-3-[cis-2,3-Bis-(4-chloro-phenyl)-6-(4-methyl-piperazine-1-carbonyl)-5-oxo-2,3-dihydro-5H-imidazo[1,2-a]pyridine-1-sulfonyl]-benzoic acid methyl ester] |
| 0.77 | O=C(O)c1cccc(S(=O)(=O)N2c3cccc(=O)n3[C@@H](c3ccc(Cl)cc3)[C@H]2c2ccc(Cl)cc2)c1 (racemic) [Example 82, rac-3-[cis-2,3-Bis-(4-chloro-phenyl)-5-oxo-2,3-dihydro-5H-imidazo[1,2-a]pyridine-1-sulfonyl]-benzoic acid] |
| 0.22 | N#Cc1cc(S(=O)(=O)N2c3cccc(=O)n3[C@@H](c3ccc(Cl)cc3)[C@H]2c2ccc(Cl)cc2)ccc1F (single isomer, unassigned) [Example 85, 5-[(2R*,3S*)-2,3-Bis-(4-chloro-phenyl)-5-oxo-2,3-dihydro-5H-imidazo[1,2-a]pyridine-1-sulfonyl]-2-fluoro-benzonitrile] |
| 0.71 | O=C(CN1CCN(C(=O)c2ccc3n(c2=O)[C@@H](c2ccc(Cl)cc2)[C@@H](c2ccc(Cl)cc2)N3S(=O)(=O)c2ccccc2F)CC1)N1CCOCC1 (racemic) [Example 51, rac-cis-2,3-Bis-(4-chloro-phenyl)-1-(2-fluoro-benzenesulfonyl)-6-[4-(2-morpholin-4-yl-2-oxo-ethyl)-piperazine-1-carbonyl]-2,3-dihydro-1H-imidazo[1,2-a]pyridin-5-one] |
| 0.47 | COC(=O)c1cccc(S(=O)(=O)N2c3ccc(C(=O)N4CCN(CC(=O)N5CCOCC5)CC4)c(=O)n3[C@@H](c3ccc(Cl)cc3)[C@H]2c2ccc(Cl)cc2)c1 (racemic) [Example 62, rac-3-{cis-2,3-Bis-(4-chloro-phenyl)-6-[4-(2-morpholin-4-yl-2-oxo-ethyl)-piperazine-1-carbonyl]-5-oxo-2,3-dihydro-5H-imidazo[1,2-a]pyridine-1-sulfonyl}-benzoic acid methyl ester] |
| 0.71 | O=c1cccc2n1[C@@H](c1ccc(Cl)cc1)[C@@H](c1ccc(Cl)cc1)N2S(=O)(=O)c1ccsc1 (racemic) [Example 10, rac-cis-2,3-Bis-(4-chloro-phenyl)-1-(thiophene-3-sulfonyl)-2,3-dihydro-1H-imidazo[1,2-a]pyridin-5-one] |
| 0.67 | COC(=O)c1cccc(S(=O)(=O)N2c3ccc(C(=O)N4CCN(CCn5ccnc5)CC4)c(=O)n3[C@@H](c3ccc(Cl)cc3)[C@H]2c2ccc(Cl)cc2)c1 (racemic) [Example 66, rac-3-{cis-2,3-Bis-(4-chloro-phenyl)-6-[4-(2-imidazol-1-yl-ethyl)-piperazine-1-carbonyl]-5-oxo-2,3-dihydro-5H-imidazo[1,2-a]pyridine-1-sulfonyl}-benzoic acid methyl ester] |
| 1.6 | N#Cc1cccc(S(=O)(=O)N2c3ccc(C(=O)N4CCOCC4)c(=O)n3[C@@H](c3ccc(Cl)cc3)[C@H]2c2ccc(Cl)cc2)c1 (single isomer, unassigned) [Example 91, 3-[2R*,3S*-bis-(4-chloro-phenyl)-6-(morpholine-4-carbonyl)-5-oxo-2,3-dihydro-5H-imidazo[1,2-a]pyridine-1-sulfonyl]-benzonitrile] |
| 0.5 | N#Cc1cc(S(=O)(=O)N2c3cccc(=O)n3[C@@H](c3ccc(Cl)cc3)[C@H]2c2ccc(Cl)cc2)ccc1F (single isomer, unassigned) [Example 84, 5-[(2R*,3S*)-2,3-Bis-(4-chloro-phenyl)-5-oxo-2,3-dihydro-5H-imidazo[1,2-a]pyridine-1-sulfonyl]-2-fluoro-benzonitrile] |
